Data set [1] relates to Hepatitis B virus. Briefly: Antiviral activity against Hepatitis B virus infected in human HepG2.215 cells assessed as reduction in cellular viral DNA level at 25 uM after 9 days by real time QF-PCR analysis relative to control. It counts as functional. The following applies: for inhibition at 25 µM: HepG2.2.15, 216 h.
Data set [2] can be described thus: Selectivity index, ratio of CC50 for human HepG2.215 cells to IC50 for Hepatitis B virus infected in human HepG2.215 cells assessed as inhibition of HBsAg secretion. It counts as toxicity, cell-based. The following applies: HepG2.2.15 cells (Hepatitis B virus infected), read-out: Ratio CC50/IC50.
In data set [3] the test system is Hepatitis B virus. Briefly: Antiviral activity against Hepatitis B virus infected in human HepG2.215 cells assessed as reduction in covalently closed circular DNA level after 9 days by real time QF-PCR analysis. It counts as functional, organism-based. The following applies: HepG2.2.15, 216 h.
Data set [4] deals with Hepatitis B virus. Put plainly: Antiviral activity against Hepatitis B virus infected in human HepG2.215 cells assessed as inhibition of HBsAg secretion after 3 days by ELISA. It counts as functional, organism-based. The following applies: HepG2.2.15, 72 h.
Data set [5] in a line: Selectivity index, ratio of CC50 for human HepG2.215 cells to IC50 for Hepatitis B virus infected in human HepG2.215 cells assessed as inhibition of HBeAg secretion. The format is toxicity, cell-based. The settings on record: HepG2.2.15 cells (Hepatitis B virus infected), read-out: Ratio CC50/IC50.
Data set [6] in a line: Selectivity index, ratio of CC50 for human HepG2.215 cells to IC50 for Hepatitis B virus infected in human HepG2.215 cells assessed as reduction in covalently closed circular DNA level. The format is toxicity, cell-based. The following applies: HepG2.2.15 cells (Hepatitis B virus infected), read-out: Ratio CC50/IC50.
A short description of data set [7]: Cytotoxicity against human HepG2.215 cells assessed as reduction in cell viability after 3 days by MTT assay. The format is cell-based, HepG2 2.2.15. The settings on record: HepG2.2.15 cells.
Data set [8] has as its system Hepatitis B virus. Put plainly: Antiviral activity against Hepatitis B virus infected in human HepG2.215 cells assessed as inhibition of HBeAg secretion after 3 days by ELISA. The settings on record: HepG2.2.15, 72 h. The format is functional, organism-based.
Data set [9] has as its system Hepatitis B virus. Briefly: Antiviral activity against Hepatitis B virus infected in human HepG2.215 cells assessed as inhibition of HBeAg secretion by measuring FITC-labeled monoclonal mouse HBeAg antibody non-labeled cells level at 12.5 uM after 3 days by flow cytometry (reference value: 0.5%). The format is functional. The settings on record: HepG2.2.15, 72 h.
Data set [10] deals with Hepatitis B virus. Briefly: Antiviral activity against Hepatitis B virus infected in human HepG2.215 cells assessed as inhibition of HBeAg secretion by measuring FITC-labeled monoclonal mouse HBeAg antibody non-labeled cells level at 6.25 uM after 3 days by flow cytometry (reference value: 0.5%). It counts as functional. The following applies: HepG2.2.15, 72 h.
Data set [11] relates to Hepatitis B virus. Put plainly: Antiviral activity against Hepatitis B virus infected in human HepG2.215 cells assessed as inhibition of HBeAg secretion by measuring FITC-labeled monoclonal mouse HBeAg antibody non-labeled cells level at 25 uM after 3 days by flow cytometry (reference value: 0.5%). It counts as functional. The settings on record: HepG2.2.15, 72 h.

The source made the active and inactive calls. No cut-off for these calls is given here.

Consider `CC(C)(O)[C@@H]1CC[C@]2(C)[C@H](C(=O)C=C3[C@@H]4C[C@@](C)(C(=O)O)CC[C@]4(C)CC[C@]32C)[C@@]1(C)CCC(=O)O`, for which the inhibition at 25 µM in data set [1] amounted to 91.4%. Further, the results for the selectivity ratio in data set [2], in [5] and in [6] were 7.87, 7.95 and 166, respectively. Besides, the IC50 in data set [3] stood at 12.3 µM; in data set [4] it was 259 µM; in data set [8], 257 µM. The CC50 at 72 h in [7] is 2040 µM.
Consider `CC1(C)CC[C@]2(C(=O)O)CC[C@]3(C)C(=CC(=O)[C@@H]4[C@@]5(C)CCC(=O)OC(C)(C)[C@@H]5CC[C@]43C)[C@@H]2C1`, for which the inhibition at 12.5 µM in [9] came to 7.8%. Besides, in data set [10], the inhibition at 6.25 µM amounted to 7.7%. The inhibition at 25 µM in data set [1] was found to be 82.6%; in data set [11], 33.5%. The selectivity ratio in data set [2] is 1.81; in [5], above 200; in data set [6], 17.4. The IC50 in data set [3] amounted to 33.5 µM; in [4] it was 321 µM; in [8] it was 0.14 µM. Besides, in data set [7], the CC50 at 72 h was found to be 583 µM.
Consider `C[C@H]1C(=O)CC[C@@H]2[C@]1(C)CC[C@H]1[C@@]2(C)CC[C@@]2(C)[C@@H]3CC(C)(C)CC[C@]3(C)CC[C@]12C` [FRIEDELINE], for which the selectivity ratio in data set [2] stood at 1.48; in [5] it was 1.43. Moreover, the IC50 in data set [4] was found to be 1210 µM; in data set [8], 1250 µM. Also, in data set [7], the CC50 at 72 h amounted to 1790 µM.
Consider `C[C@H]1[C@H](C)CC[C@]2(C(=O)O)CC[C@]3(C)C(=CC[C@@H]4[C@@](C)(CCC(=O)O)[C@H](C(C)(C)O)CC[C@]43C)[C@H]12`, for which the selectivity ratio was determined as 1.13 in data set [2] and 1.2 in data set [5]. Further, the 50% inhibitory concentration (IC50) in data set [4] is 406 µM; in [8], 384 µM. The CC50 at 72 h in [7] was found to be 461 µM.
For `CC1(C)[C@@H](O)CC[C@]2(C)[C@H]3C(=O)C=C4[C@@H]5C[C@@](C)(C(=O)O)CC[C@]5(C)CC[C@@]4(C)[C@]3(C)CC[C@@H]12` [ENOXOLONE] the same measures were 1.27, 0.81, 510 µM, 806 µM and 650 µM.
For `CC1(C)OC(=O)CC[C@]2(C)[C@H]3C(=O)C=C4[C@@H]5C[C@@](C)(C(=O)O)CC[C@]5(C)CC[C@@]4(C)[C@]3(C)CC[C@@H]12`, the inhibition result in data set [1] is “Active”. In addition, the selectivity ratio is 3.2 in [2] and 6.67 in data set [5]. Also, the results for the IC50 in data set [4] and in [8] were 171 µM and 81.9 µM, respectively. Besides, the CC50 at 72 h in [7] worked out at 546 µM.
With `CC1(C)CC[C@]2(C(=O)O)CC[C@]3(C)C(Br)(CC[C@@H]4[C@@]5(C)CCC(=O)C(C)(C)[C@@H]5CC[C@]43C)[C@@H]2C1` (some centres not stated), the selectivity ratio in data set [2] was 0.11; in data set [5] it was 0.1. Moreover, the IC50 in data set [4] is 883 µM; in [8] it was 925 µM. Also, in data set [7], the half-maximal cytotoxic concentration (CC50) at 72 h was 100 µM.
For `Nc1ccn([C@H]2CS[C@@H](CO)O2)c(=O)n1`, the inhibition at 25 µM in data set [1] turned out to be 92.8%. For the same compound, the 50% inhibitory concentration (IC50) turned out to be 917 µM in data set [4] and 1440 µM in data set [8]. In addition, the CC50 at 72 h in data set [7] was 876 µM.
Regarding `CC1(C)CC[C@]2(C(=O)O)CC[C@]3(C)C(=CC[C@@H]4[C@@]5(C)CCC(=O)OC(C)(C)[C@@H]5CC[C@]43C)[C@@H]2C1`, in data set [9], the inhibition at 12.5 µM is 10.6%. Besides, the inhibition at 6.25 µM in data set [10] is 6.2%. Also, the inhibition at 25 µM in [1] stood at 81.6%; in [11], 34%. Moreover, the selectivity ratio in data set [2] is 1.32; in data set [5], above 200; in [6] it was 14.5. For the same compound, the 50% inhibitory concentration (IC50) is 32.7 µM in data set [3], 360 µM in data set [4] and 0.86 µM in [8]. Moreover, the CC50 at 72 h in data set [7] worked out at 477 µM.
Consider `CC1(C)CC[C@@]23CC[C@]4(C)[C@@](OC2=O)([C@@H]3C1)[C@@H](O)C[C@@H]1[C@@](C)(CCC(=O)O)[C@H](C(C)(C)O)CC[C@]14C`, for which the inhibition entry in [1] is “Active”. The selectivity ratio in [2] turned out to be 1.32; in data set [5], 4.04. In addition, the IC50 in [4] was found to be 340 µM; in data set [8], 112 µM. Also, the half-maximal cytotoxic concentration (CC50) at 72 h in data set [7] amounted to 452 µM.
With `CC1(C)CC[C@]2(C(=O)O)CC[C@]3(C)C(Br)(CC[C@@H]4[C@@]5(C)CCC(=O)OC(C)(C)[C@@H]5CC[C@]43C)[C@@H]2C1` (some centres not stated), the selectivity ratio in data set [2] turned out to be 1.59; in data set [5] it was 5.21. Also, the half-maximal inhibitory concentration (IC50) in data set [4] stood at 305 µM; in [8] it was 92.3 µM. The cytotoxic concentration (CC50) at 72 h in data set [7] was 485 µM.
With `C[C@H]1OC(=O)CC[C@@H]2[C@]1(C)CC[C@H]1[C@@]2(C)CC[C@@]2(C)[C@@H]3CC(C)(C)CC[C@]3(C)CC[C@]12C` [FRIEDELIN-3,4-LACTONE], the selectivity ratio turned out to be 0.63 in [2] and 0.61 in data set [5]. The IC50 in data set [4] was 765 µM; in data set [8], 790 µM. For the same compound, in data set [7], the CC50 at 72 h is 482 µM.
`C[C@H]1[C@H](C)CC[C@]2(C(=O)O)CC[C@]3(C)C(=CC[C@@H]4[C@@]5(C)CCC(=O)OC(C)(C)[C@@H]5CC[C@]43C)[C@H]12`: the selectivity ratio was 1.43 in [2] and 2.3 in data set [5]. For the same compound, the IC50 in data set [4] was determined as 284 µM; in data set [8] it was 176 µM. Besides, the CC50 at 72 h in data set [7] came out at 406 µM.
For `C[C@H]1[C@H](C)CC[C@]2(C(=O)O)CC[C@]3(C)C(=CC[C@@H]4[C@@]5(C)CC[C@H](O)C(C)(C)[C@@H]5CC[C@]43C)[C@H]12` [URSOLIC ACID] the same measures were 1.13, 1.72, 1360 µM, 897 µM and 1540 µM.
In the case of `CC1(C)CC[C@]2(C(=O)O)CC[C@]3(C)C(=CC[C@@H]4[C@@]5(C)CC[C@H](O)C(C)(C)[C@@H]5CC[C@]43C)[C@@H]2C1` [OLEANOLIC_ACID], the selectivity ratio is 0.53 in data set [2] and 0.9 in data set [5]. Further, the figures for the IC50 in [4] and in data set [8] were 1360 µM and 814 µM, respectively. In data set [7], the CC50 at 72 h amounted to 731 µM.
Consider `CC1(C)CC[C@@]23CC[C@]4(C)[C@@](OC2=O)([C@@H]3C1)[C@@H](O)C[C@@H]1[C@@]2(C)CCC(=O)OC(C)(C)[C@@H]2CC[C@]14C`, for which, in [1], the inhibition entry was “Active”. The values for the selectivity ratio in [2] and in data set [5] were 1.57 and 3.03, respectively. Further, the IC50 in data set [4] amounted to 286 µM; in data set [8], 149 µM. For the same compound, the CC50 at 72 h in [7] turned out to be 540 µM.

(Values after ChEMBL document CHEMBL4219203, “Design, synthesis and biological evaluation of seco-A-pentacyclic triterpenoids-3,4-lactone as potent non-nucleoside HBV inhibitors” (Bioorg Med Chem Lett, 2018).)
